Data: patent publication US20110207807A1, “NEW USE FOR HOMOISOFLAVONE OR A SALT THEREOF” (Catholic University Industry Academy Cooperation Foundation, priority 2008, published 2011)

Key:
COX-2 [1] = assay: COX-2 expression induced by PMA and A23187 in human mast cells (Western blot); format: cell-based; details: HMC-1, homoisoflavanone 2 μg/mL or celecoxib 60 μM, 50 nM PMA + 1 μM A23187, 21 hours (FIG. 7a)
Protocol: In order to investigate the effect of homoisoflavanone on COX-2 expression induced by phorbol 12-myristate 13-acetate and A23187 in human mast cells, 1×10^6 HMC-1 cells were inoculated on a 100-mm culture dish and cultured in IMDM containing 10% FBS for 48 hours.

leukotriene B4 = assay: Release of leukotriene B4 induced by PMA and A23187 in HMC-1 (enzyme immunoassay); format: cell-based, human
Text: Phorbol 12-myristate 13-acetate and A23187 lead to degranulation of human mast cells (HMC), causing the mast cells to release not only their histamine or serotonin but also newly produced inflammatory factors such as pro-inflammatory cytokines, prostaglandins and leukotrienes. It was investigated whether homoisoflavanone has anti-inflammatory effect in mast cells as in Examples 4 and 5. In order to investigate the effect of homoisoflavanone on the release of leukotriene induced by phorbol 12-myristate 13-acetate and A23187 in HMC-1, 1×10^6 HMC-1 cells were inoculated on a 100-mm culture dish and cultured in Iscove's modified Dulbecco's medium (IMDM, GIBCO) containing 10% FBS for 48 hours. Then, after treating with homoisoflavanone at 2 μg/mL or with mizolastine at 10 μg/mL for comparison for 1 hour, the cells were treated with 50 nM phorbol 12-myristate 13-acetate and 1 μM A23187 to induce release of leukotriene, and then further cultured for 21 hours. Then, the supernatant was collected and the quantity of released leukotriene B4 and C4 was measured using a leukotriene B4, C4 enzyme immunoassay kit (Sapphire Bioscience, Australia).

BALE/c mice = assay: Ear edema induced by UV radiation in animal model; format: in vivo, mouse; details: UV 7.5 kJ/m^2, 72 hours after UV (FIG. 10a)
Protocol: BALE/c mice were subdivided into a non-treated group (treated with acetone only without UV radiation), a control group (irradiated with UV at 7.5 kJ/m^2) and a test group (treated with 0.6 or 1 μg/10 μL homoisoflavanone and irradiated with UV at 7.5 kJ/m^2). Then, the effect on ear edema induced by UV radiation was investigated.
One hour before irradiating UV at 7.5 kJ/m^2, 1 μg/10 μL homoisoflavanone was applied on the front and rear parts of the ear, 5 μL each. Then, 72 hours after UV radiation, ear thickness was measured.

HMC-1 cells = assay: Histamine release during degranulation of HMC-1 (histamine enzyme assay kit); format: cell-based, human; details: HMC-1, 2 μg/mL, 50 nM PMA + 1 μM A23187 (FIG. 8b)
Protocol: In order to investigate the effect of homoisoflavanone on COX-2 expression induced by phorbol 12-myristate 13-acetate and A23187 in HMC-1, 1×10^5 HMC-1 cells were inoculated on a 6-well plate and cultured in IMDM containing 10% FBS for 48 hours. Then, after treating with homoisoflavanone at 2 μg/mL for 1 hour, the cells were treated with 50 nM phorbol 12-myristate 13-acetate and 1 μM A23187 to induce COX-2 expression, and then further cultured for 6 hours. Then, the cells were fixed with 2.5% glutaraldehyde and frozen with liquid nitrogen. The cells were detached from the plate by applying heat, sliced into […], attached on grids, and observed with a transmission electron microscope (TEM).
In order to measure histamine released during the degranulation, the cell supernatant was collected and subjected to measurement using a histamine enzyme assay kit (Cayman, USA) according to the manufacturer's instructions. First, the collected supernatant was anti-histamine derivatized and reacted with histamine-AChE tracer. Then, after washing at least 5 times followed by visualization for 60-90 minutes, absorbance was measured at 414 nm.

COX-2 [2] = assay: COX-2 expression induced by UV in human keratinocytes (Western blot); format: cell-based; details: HaCaT cells, 1 μg/mL, UV 100 J/m^2, 16 hours, vs UV only (FIG. 2a)
Protocol: In order to investigate the effect of homoisoflavanone on COX-2 expression induced by UV in human keratinocytes, HaCaT cells (5×10^5 cells) were inoculated on a 60-mm culture dish and cultured for 24 hours in DMEM containing 10% FBS.
Then, the cells were starved by culturing for 24 hours in DMEM containing 1% FBS. Then, after treating with homoisoflavanone at 1 μg/mL for 1 hour, the cells were washed 3 times with PBS and irradiated with UV at 100 J/m^2 to induce COX-2 expression. Immediately after the UV radiation, the cells were washed again with PBS and further cultured for 16 hours in DMEM containing 1% FBS, while treating with homoisoflavanone at the same concentration.
Thereafter, Western blotting was performed as follows in order to measure the degree of COX-2 expression in the cultured cells. The cells of each group were lysed using RIPA buffer containing 2 mM EDTA, 137 mM NaCl, 20 mM Tris-HCl (pH, 8.0), 1 mM sodium vanadate, 10 mM NaF, 1 mM phenylmethanesulfonyl fluoride (PMSF), 1% Triton X-100, 10% glycerol and a protease inhibitor cocktail, and subjected to SDS-PAGE electrophoresis on 10% acrylamide gel to separate proteins, which were then transferred to a nylon membrane and separated using goat anti-COX-2 antibody (SantaCruz, USA) and anti-goat IgG-horse radish peroxidase (HRP) conjugation antibody (1:10000, Zymed) as secondary antibody. […]

IL-8 = IL-8 mRNA expression induced by PMA and A23187 in HMC-1 (real-time PCR); format: cell-based, human; details: HMC-1, 2 μg/mL, 50 nM PMA + 1 μM A23187, 5 hours (FIG. 6d)
Protocol: (§1) In order to investigate the effect of homoisoflavanone on the release of pro-inflammatory cytokines induced by phorbol 12-myristate 13-acetate and A23187 in HMC-1, 5×10^5 HMC-1 cells were inoculated on a 60-mm culture dish and cultured in IMDM containing 10% FBS for 48 hours. Then, after treating with homoisoflavanone at 2 μg/mL, the cells were treated with 50 nM phorbol 12-myristate 13-acetate and 1 μM A23187 to induce release of pro-inflammatory cytokines, and then further cultured for 5 hours.
(§2) After extracting RNA from the cells of each test group using TRIzol, cDNA was prepared by carrying out PCR using the RNA as a template. Then, the mRNA expression of IL-6 and IL-8 was measured through real-time PCR using the cDNA as template and using commercially available IL-6 and IL-8 primers. The expression level of the pro-inflammatory cytokines was compared relative to the non-treated group.

IL-6 = IL-6 mRNA expression induced by PMA and A23187 in HMC-1 (real-time PCR); format: cell-based, human; details: HMC-1, 2 μg/mL, 50 nM PMA + 1 μM A23187, 5 hours (FIG. 6c)
Protocol: as §1, §2

COc1ccc(CC2COc3cc(O)cc(O)c3C2=O)cc1O (stereo not drawn) [homoisoflavanone]
inhibition of COX-2 expression (COX-2 [1]): 80% | leukotriene B4 release when treated alone, versus non-treated group (leukotriene B4; HMC-1, homoisoflavanone 2 μg/mL or mizolastine 10 μg/mL alone, without PMA/A23187 (FIG. 6a)): no appreciable difference | inhibition of release of leukotriene B4 (leukotriene B4; HMC-1, homoisoflavanone 2 μg/mL or mizolastine 10 μg/mL, 50 nM PMA + 1 μM A23187, 21 hours (FIG. 6a)): 70% | decrease in ear thickness (BALE/c mice; 0.6 μg/ear topical): 44% | decrease in ear thickness (BALE/c mice; 1 μg/ear topical): 52% | inhibition of release of histamine (HMC-1 cells): 72% | COX-2 expression induced by UV (COX-2 [2]): decreased | inhibition of release (mRNA expression) of IL-8 (IL-8): 50% | inhibition of release (mRNA expression) of IL-6 (IL-6): 50%
